Patent US12258547B2, “Cell culture plate, method for preparing thereof and method for detecting a substance” (UPM-Kymmene Corporation, priority 2019, dated 2025)
Where a name gives a salt, the structure may show the parent alone.

Legend:
BJ fibroblasts [1] = assay: Experiment 1: WST-1 viability of BJ fibroblast monoculture, direct exposure; conditions: for toxicity to BJ fibroblast monocultures: drug as such, without HepaRG treatment
From the text: (§1) Cell viability/cytotoxicity was always investigated using WST-1 assay. The assay principle is based on the conversion of the tetrazolium salt WST-1 into a colored dye by mitochondrial dehydrogenase enzymes. The soluble salt is released into the media. Within a given time period, the reaction produces a color change which is directly proportional to the amount of mitochondrial dehydrogenase in a given culture. As a result, the assay actually measures the net metabolic activity of cells. Theoretically, this is reflective of cell number • the more cells, the more dehydrogenase available to reduce the reagent.
(§2) BJ cell suspension was prepared at a density of 40 000 cells/ml in BJ cell culture medium. 100 μl of this suspension was pipetted to a 96-well plate resulting in 4000 cells/well.
(§3) Selegiline and paracetamol dilutions were prepared on the day of use. First, 1 mg/ml stocks were prepared from both drugs, then 200 and 20 μg/ml dilutions were prepared from paracetamol stock, and 200, 20, 10, 5 and 2 μg/ml dilutions from selegiline stock. The stocks and dilutions were prepared in BJ chemical dilution medium. Selegiline toxicity was studied more extensively than paracetamol, because there was no previous data of selegiline toxicity to BJ fibroblasts. Instead, paracetamol toxicity to human BJ fibroblasts has been extensively studied.
(§4) BJ cell culture medium was removed from the cells by dumping and blotting the plate carefully on sterile towel. Immediately, 50 μl BJ cell culture medium was added to all wells, and then 50 μl test item dilutions (selegiline or paracetamol) or 50 μl vehicle control. […] BJ chemical dilution medium was used as vehicle control. […] One of the plates was incubated for 3 hrs and the other for 20 hrs.
(§5) After the 3-hours or 20 hrs incubation, 10 μl WST-1 reagent was added into the wells. The plate was incubated for 2 hrs, thereafter absorbance was read at 450 nm.
(§6) Blank values (contained all reagents, including drugs, but no cells) were subtracted from the absorbance data. […] The statistical difference between untreated control and treated cells was assessed using t-test (SigmaPiot).

BJ fibroblasts [2] = assay: Experiments 2-3: HepaRG/BJ co-culture separated by GrowDex barrier, dosing via HepaRG, WST-1, BJ side; conditions: for MEAN absorbance at 450 nm / MEDIAN absorbance at 450 nm / viability, % of control: BJ cells
From the text: as §1, with “reagent. […]” for “reagent.”
(§7) The mean absorbances were calculated separately for each well and both sides of the barrier. The decision on the acceptability of the data was made individually for each well. The data of the well was accepted provided that the barrier functioned properly, i.e. the ratio of HepaRG and BJ absorbances at 450 nm was >2.0.
(§8) GrowDex barriers were prepared to split the wells of a 24-well plate into two “equally sized” compartments as follows. 250 μl GrowDex was pipetted to the wells (using positive displacement pipette) to construct the first layer of the barrier. The barriers were left to dry in the laminar hood for 1 hr with the lid open. Then a second layer was pipetted on the top of the first layer.
(§9) BJ cell suspension was prepared at a density of 70 000 cells/ml BJ cell culture medium, and 150 μl of this suspension was pipetted to the right side of the barriers resulting in 10 500 cells/well.
(§10) HepaRG suspension was prepared at a density of 2 million HepaRG cells/ml HepaRG® Thawing/Plating/General Purpose Medium 670. Medium was removed from the left side of the barrier. 150 μl HepaRG suspension, i.e., 300 000 cells was added to each well. The plate was gently agitated in back-and-forth and side-to-side manner, and the homogeneity of the cell distribution was ensured visually. The plate was placed back into cell culture incubator and the cells were let recover for 4 hrs before exposure.
(§11) Medium was carefully removed from the HepaRG cells (left side of the barrier), and replaced with 75 μl/well HepaRG TOX Medium/well. This was performed one well at a time.

[3] = Experiments 2-3: HepaRG/BJ co-culture separated by GrowDex barrier, dosing via HepaRG, WST-1, HepaRG side; assay type: cell-based; conditions: human
Procedure: (§12) The soluble salt is released into the media.
(§13) Eight barriers were prepared using this method. […] Four barriers were prepared using this method.
(§14) The plate was incubated for 1 hr.
(§15) This was performed one well at a time.
(§16) Absorbance was read using the Multipoint measurement.

HepaRG cells = assay: as above; assay type: cell-based; conditions: for MEAN absorbance at 450 nm / MEDIAN absorbance at 450 nm / viability, % of control: HepaRG
Procedure: as §12, §13, §14, §15, §16

BJ fibroblasts [4] = assay: Experiment 4: BJ cells exposed to direct or HepaRG-conditioned paracetamol, WST-1; assay type: cell-based, Human; conditions: 500 μg/ml, conditioned 20 hrs with HepaRG, 24 hrs exposure
Procedure: The HepaRG cells that were left from Experiment 3 were seeded to a 25 cm^2 cell culture flask, and cultured for 1 week. Medium (HepaRG induction medium) was renewed twice during the week.
The medium was removed from HepaRG cells (grown in a 25 cm^2 flask), and replaced by 2.5 ml of HepaRG TOX medium. Then 2.5 ml of 1 mg/ml paracetamol prepared in HepaRG TOX medium was added to the flask (final paracetamol concentration 500 μg/ml). HepaRG cells were incubated with paracetamol for 20 hrs.
The medium was removed from BJ cells, and replaced by 500 μg/ml paracetamol in BJ chemical dilution medium or 500 μg/ml HepaRG-conditioned-paracetamol in HepaRG TOX-medium. BJ chemical dilution medium and HepaRG TOX medium served as vehicle controls. All treatments were tested in 16 parallel wells. The exposure time was 24 hrs.
After the exposure, 10 μl WST-1 reagent was added to the wells. The plate was incubated for 2 hrs, and the absorbance was read at 450 nm.

[5] = Experiment 1: WST-1 viability of BJ fibroblast monoculture, direct exposure; conditions: human
From the text: as §1, §2, §3, §4, §5, §6

[6] = Experiments 2-3: HepaRG/BJ co-culture separated by GrowDex barrier, dosing via HepaRG, WST-1, BJ side; conditions: human, decrease of BJ viability, 10 μg/ml via HepaRG, 3 hrs
From the text: as §1, with “reagent. […]” for “reagent.”
as §7, §8, §9, §10, §11

[7] = 250 μg/ml paracetamol via HepaRG, 4 hrs
[8] = 250 μg/ml paracetamol via HepaRG, 20 hrs
[9] = 500 μg/ml paracetamol via HepaRG, 4 hrs
[10] = 500 μg/ml paracetamol via HepaRG, 20 hrs
[11] = 1 μg/ml selegiline via HepaRG, 3 hrs
[12] = 5 μg/ml selegiline via HepaRG, 3 hrs
[13] = 10 μg/ml selegiline via HepaRG, 3 hrs

## CC(=O)Nc1ccc(O)cc1 [paracetamol, Paracetamol]
BJ fibroblasts [1]; 500 μg/ml, 3 hrs exposure
  increase of BJ cell viability: ~9%
BJ fibroblasts [1]
  toxicity to BJ fibroblast monocultures: not toxic
BJ fibroblasts [1]; up to 500 μg/ml, 3 and 20 hrs
  effect on viability of BJ fibroblasts: did not reduce the viability
BJ fibroblasts [2]; 250 μg/ml via HepaRG, 4 hrs
  increase of BJ cell viability: ~40%
BJ fibroblasts [2]; 250 μg/ml via HepaRG, 20 hrs
  increase of BJ viability: ~30%
BJ fibroblasts [2]; 500 μg/ml via HepaRG, short exposure (4 hrs)
  effect on BJ cell viability: did not affect cell viability
BJ fibroblasts [2]; [7]
  MEAN absorbance at 450 nm: 1.685
  MEDIAN absorbance at 450 nm: 1.777
  viability, % of control: 140.89 % of control
BJ fibroblasts [2]; [8]
  MEAN absorbance at 450 nm: 1.777
  MEDIAN absorbance at 450 nm: 1.801
  viability, % of control: 128.23 % of control
BJ fibroblasts [2]; [9]
  MEAN absorbance at 450 nm: 1.188
  MEDIAN absorbance at 450 nm: 1.164
  viability, % of control: 99.34 % of control
BJ fibroblasts [2]; [10]
  MEAN absorbance at 450 nm: 1.356
  MEDIAN absorbance at 450 nm: 1.325
  viability, % of control: 97.89 % of control
[3]; 250 μg/ml, 4 hrs, read-out: decrease of HepaRG viability
  cytotoxicity at 4 h, 250 μg/ml: ~15%
[3]; highest concentration (500 μg/ml), 20 hrs, read-out: reduction of HepaRG viability
  cytotoxicity at 20 h, 500 μg/ml: ~10%
HepaRG cells; 500 μg/ml, short exposure (4 hrs)
  effect on HepaRG cell viability: did not affect cell viability
HepaRG cells; 250 μg/ml paracetamol, 4 hrs
  MEAN absorbance at 450 nm: 3.571
  MEDIAN absorbance at 450 nm: 3.513
  viability, % of control: 85.58 % of control
HepaRG cells; 250 μg/ml paracetamol, 20 hrs
  MEAN absorbance at 450 nm: 4.196
  MEDIAN absorbance at 450 nm: 4.239
  viability, % of control: 105.78 % of control
HepaRG cells; 500 μg/ml paracetamol, 4 hrs
  MEAN absorbance at 450 nm: 4.074
  MEDIAN absorbance at 450 nm: 4.134
  viability, % of control: 97.65 % of control
HepaRG cells; 500 μg/ml paracetamol, 20 hrs
  MEAN absorbance at 450 nm: 3.606
  MEDIAN absorbance at 450 nm: 3.771
  viability, % of control: 90.91 % of control
BJ fibroblasts [4]
  effect of HepaRG-treatment on BJ fibroblast viability: minor effect

## C#CCN(C)[C@H](C)Cc1ccccc1 [selegiline, Selegiline hydrochloride]
[5]
  cytotoxicity at 500 μg/ml: ~10%
BJ fibroblasts [1]
  toxicity to BJ fibroblast monocultures: not toxic
BJ fibroblasts [1]; lowest selegiline concentrations
  increase of BJ fibroblast viability: ~10%
[6]
  cytotoxicity at 3 h, 10 μg/ml: ~25%
BJ fibroblasts [2]; 1 and 5 μg/ml via HepaRG, 3 hrs
  effect on BJ viability: seemed to increase
BJ fibroblasts [2]; [11]
  MEAN absorbance at 450 nm: 1.429
  MEDIAN absorbance at 450 nm: 1.539
  viability, % of control: 141.43 % of control
BJ fibroblasts [2]; [12]
  MEAN absorbance at 450 nm: 1.219
  MEDIAN absorbance at 450 nm: 1.243
  viability, % of control: 120.69 % of control
BJ fibroblasts [2]; [13]
  MEAN absorbance at 450 nm: 0.760
  MEDIAN absorbance at 450 nm: 0.676
  viability, % of control: 75.19 % of control
[3]; 10 μg/ml, 3 hrs, read-out: decrease of HepaRG viability
  cytotoxicity at 3 h, 10 μg/ml: ~5%
HepaRG cells; 1 and 5 μg/ml, 3 hrs
  effect on HepaRG viability: seemed to increase
HepaRG cells; 1 μg/ml selegiline, 3 hrs
  MEAN absorbance at 450 nm: 3.486
  MEDIAN absorbance at 450 nm: 3.794
  viability, % of control: 114.23 % of control
HepaRG cells; 5 μg/ml selegiline, 3 hrs
  MEAN absorbance at 450 nm: 3.344
  MEDIAN absorbance at 450 nm: 3.588
  viability, % of control: 109.57 % of control
HepaRG cells; 10 μg/ml selegiline, 3 hrs
  MEAN absorbance at 450 nm: 2.892
  MEDIAN absorbance at 450 nm: 3.078
  viability, % of control: 94.77 % of control
